Where two headings read alike, the source gives them in different places. Square brackets hold non-standard residues; d marks the D form. Peptide text beside a SMILES is read from it. * marks the point of attachment. Pyrrolidinyl(3-NH2,3-CO2Me) = COC(=O)C1(N)CCN(*)C1; dAla(cPr) = N[C@H](CC1CC1)C(=O)O A value given as a limit tells only on which side of the number the result lay.

In general, IC50 refers to the concentration that inhibits the measured activity by half. Usually EC50 stands for the concentration giving half of the maximal effect.

In assay [1] the target is recombinant human kappa (KOR) opioid receptor (Homo sapiens (Human), UniProt P41145). Briefly: biochemical. It is filed as binding. Conditions: HEK293 cell membranes, 0.5 nM [3H]diprenorphine.
For assay [2], the target named is Opioid Kappa Receptor (recombinant human, HEK293 cells) (Homo sapiens (Human), UniProt P41145). Briefly: cell-based. The settings on record: read-out: EC50.
Assay [3] deals with recombinant human mu (MOR) opioid receptor (Homo sapiens (Human), UniProt P35372). Briefly: Opioid receptor radioligand binding assay, MOR.
The target of assay [4] is recombinant human delta (DOR) opioid receptor (Homo sapiens (Human), UniProt P41143). Briefly: Opioid receptor radioligand binding assay, DOR.
Chain of recombinant human delta (DOR) opioid receptor (P41143 whole entry, looked up): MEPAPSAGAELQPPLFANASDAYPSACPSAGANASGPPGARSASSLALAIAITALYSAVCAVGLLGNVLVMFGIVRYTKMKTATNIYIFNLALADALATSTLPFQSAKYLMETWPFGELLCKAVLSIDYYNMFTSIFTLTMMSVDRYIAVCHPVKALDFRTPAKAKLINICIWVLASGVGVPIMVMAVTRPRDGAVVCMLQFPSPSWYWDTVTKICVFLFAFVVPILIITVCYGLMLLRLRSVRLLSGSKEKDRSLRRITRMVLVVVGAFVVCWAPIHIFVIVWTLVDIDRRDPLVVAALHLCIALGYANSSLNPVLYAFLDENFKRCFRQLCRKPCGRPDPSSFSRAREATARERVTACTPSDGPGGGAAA
Setting [5] is: HEK293 cell membranes, 0.5 nM [3H]DAMGO, read-out: MOR, IC50.
Where [6] appears, read: HEK293 cell membranes, 0.5 nM [3H]DADLE, read-out: DOR, IC50.

Turning to `COC(=O)C1(N)CCN(C(=O)[C@@H](CCCCN)NC(=O)[C@@H](CC2CC2)NC(=O)[C@@H](Cc2ccccc2)NC(=O)[C@H](N)Cc2ccccc2)C1` (some centres unmarked) [Compound 118] (H-[dF][dF][dAla(cPr)][dK]-{Pyrrolidinyl(3-NH2,3-CO2Me)}), the results for the IC50 in assay [1], in assay [3] (setting [5]) and in assay [4] (setting [6]) were 0.33 nM, > 10000 nM and > 10000 nM, respectively. Moreover, the EC50 in assay [2] worked out at 9.31 nM.
With `CC(C)C[C@@H](NC(=O)[C@@H](Cc1ccccc1)NC(=O)[C@H](N)Cc1ccccc1)C(=O)N[C@H](CCCCN)C(=O)N1CCC(NC(=O)/C=C\C(=O)NC(N)=O)CC1` [Compound 13-54], the IC50 was 0.21 nM in assay [1], 1530 nM in assay [3] and > 10000 nM in assay [4]. Also, the EC50 in assay [2] amounted to 15.1 nM.
Take `COC(=O)C(=O)NC1CCN(C(=O)[C@@H](CCCCN)NC(=O)[C@@H](CC(C)C)NC(=O)[C@@H](Cc2ccccc2)NC(=O)[C@H](N)Cc2ccccc2)CC1` [Compound 13-29]: the IC50 is 0.29 nM in assay [1], 6.86 nM in assay [3] (setting [5]) and > 10000 nM in assay [4] (setting [6]). In addition, the EC50 in assay [2] came out at 15.5 nM.
For the molecule `COC(=O)/C=C/C(=O)N1CCN(C(=O)[C@@H](CCCCN)NC(=O)[C@@H](CC(C)C)NC(=O)[C@@H](Cc2ccccc2)NC(=O)[C@H](N)Cc2ccccc2)CC1` [Compound 13-24], the results for the IC50 in assay [1], in assay [3] (setting [5]) and in assay [4] (setting [6]) were 0.52 nM, 7990 nM and > 10000 nM, respectively. Further, the EC50 in assay [2] worked out at 31.5 nM.
Consider `CC(C)C[C@@H](NC(=O)[C@@H](Cc1ccccc1)NC(=O)[C@H](N)Cc1ccccc1)C(=O)N[C@H](CCCCN)C(=O)N1CCC(NC(=O)[C@@H](N)CC(N)=O)CC1` [Compound 13-42], for which the values for the IC50 in assay [1], in assay [3] (setting [5]) and in assay [4] (setting [6]) were 0.48 nM, > 10000 nM and > 10000 nM, respectively. Besides, the EC50 in assay [2] came out at 8.43 nM.

(Values after patent US12215173B2, “Kappa opioid receptor peptide amide ligands” (priority 2019, dated 2025).)
